ChEMBL document CHEMBL4138175, “Newly designed organotin(IV) carboxylates with peptide linkage: Synthesis, structural elucidation, physicochemical characterizations and pharmacological investigations” (Eur J Med Chem, 2018)
The source made the active and inactive calls. The calls are words filed in the database; no cut-off is given here.

test system: NCI-H157; experiment: Cytotoxicity against human NCI-H157 cells at 100 uM after 48 hrs by sulforhodamine B assay; format: functional

Substance | Activity
Tributylstannyl 2-(4-methoxy-2-nitrophenylcarbamoyl)benzoate | 38.2%

test system: NCI-H157; experiment: Cytotoxicity against human NCI-H157 cells at 10 uM after 48 hrs by sulforhodamine B assay; format: functional

Substance | Activity
Tributylstannyl 2-(4-methoxy-2-nitrophenylcarbamoyl)benzoate | 37.7%

test system: NCI-H157; experiment: Cytotoxicity against human NCI-H157 cells at 1 uM after 48 hrs by sulforhodamine B assay; format: functional

Substance | Activity
Tributylstannyl 2-(4-methoxy-2-nitrophenylcarbamoyl)benzoate | 35.6%

test system: NCI-H157; experiment: Cytotoxicity against human NCI-H157 cells at 0.1 uM after 48 hrs by sulforhodamine B assay; format: functional

Substance | Activity
Tributylstannyl 2-(4-methoxy-2-nitrophenylcarbamoyl)benzoate | 32.1%

test system: Leishmania major; experiment: Antileishmanial activity against Leishmania major promastigotes at 100 uM after 72 hrs by MTT assay relative to control; format: functional

Substance | Activity
Tributylstannyl 2-(4-methoxy-2-nitrophenylcarbamoyl)benzoate | 66.9%

test system: Leishmania major; experiment: Antileishmanial activity against Leishmania major promastigotes at 10 uM after 72 hrs by MTT assay relative to control; format: functional

Substance | Activity
Tributylstannyl 2-(4-methoxy-2-nitrophenylcarbamoyl)benzoate | 63.3%

test system: Leishmania major; experiment: Antileishmanial activity against Leishmania major promastigotes at 1 uM after 72 hrs by MTT assay relative to control; format: functional

Substance | Activity
Tributylstannyl 2-(4-methoxy-2-nitrophenylcarbamoyl)benzoate | 57.4%

test system: Leishmania major; experiment: Antileishmanial activity against Leishmania major promastigotes at 0.1 uM after 72 hrs by MTT assay relative to control; format: functional

Substance | Activity
Tributylstannyl 2-(4-methoxy-2-nitrophenylcarbamoyl)benzoate | 52.6%

test system: Klebsiella pneumoniae; experiment: Antibacterial activity against Klebsiella pneumoniae assessed as zone of inhibition after 24 to 48 hrs by well diffusion method; format: functional

Substance | inhibition zone (IZ)
Tributylstannyl 2-(4-methoxy-2-nitrophenylcarbamoyl)benzoate | 15 mm

test system: Streptococcus pyogenes; experiment: Antibacterial activity against Streptococcus pyogenes assessed as zone of inhibition after 24 to 48 hrs by well diffusion method; format: functional

Substance | inhibition zone (IZ)
Tributylstannyl 2-(4-methoxy-2-nitrophenylcarbamoyl)benzoate | inactive

test system: Staphylococcus epidermidis; experiment: Antibacterial activity against Staphylococcus epidermidis assessed as zone of inhibition after 24 to 48 hrs by well diffusion method; format: functional

Substance | inhibition zone (IZ)
Tributylstannyl 2-(4-methoxy-2-nitrophenylcarbamoyl)benzoate | 16 mm

test system: Staphylococcus aureus; experiment: Antibacterial activity against Staphylococcus aureus assessed as zone of inhibition after 24 to 48 hrs by well diffusion method; format: functional

Substance | inhibition zone (IZ)
Tributylstannyl 2-(4-methoxy-2-nitrophenylcarbamoyl)benzoate | inactive

test system: Serratia marcescens; experiment: Antibacterial activity against Serratia marcescens assessed as zone of inhibition after 24 to 48 hrs by well diffusion method; format: functional

Substance | inhibition zone (IZ)
Tributylstannyl 2-(4-methoxy-2-nitrophenylcarbamoyl)benzoate | 12.7 mm

test system: Pseudomonas aeruginosa; experiment: Antibacterial activity against Pseudomonas aeruginosa assessed as zone of inhibition after 24 to 48 hrs by well diffusion method; format: functional

Substance | inhibition zone (IZ)
Tributylstannyl 2-(4-methoxy-2-nitrophenylcarbamoyl)benzoate | 15.7 mm

test system: Escherichia coli; experiment: Antibacterial activity against Escherichia coli assessed as zone of inhibition after 24 to 48 hrs by well diffusion method; format: functional

Substance | inhibition zone (IZ)
Tributylstannyl 2-(4-methoxy-2-nitrophenylcarbamoyl)benzoate | 1.56 mm

test system: Klebsiella pneumoniae; experiment: Antibacterial activity against Klebsiella pneumoniae assessed as zone of inhibition by measuring activity index after 24 to 48 hrs by well diffusion method relative to tetracycline; format: functional, organism-based

Substance | Activity index
Tributylstannyl 2-(4-methoxy-2-nitrophenylcarbamoyl)benzoate | 1.07

test system: Klebsiella pneumoniae; experiment: Antibacterial activity against Klebsiella pneumoniae assessed as zone of inhibition by measuring activity index after 24 to 48 hrs by well diffusion method relative to ampicillin; format: functional, organism-based

Substance | Activity index
Tributylstannyl 2-(4-methoxy-2-nitrophenylcarbamoyl)benzoate | 2.5

test system: Klebsiella pneumoniae; experiment: Antibacterial activity against Klebsiella pneumoniae assessed as zone of inhibition by measuring activity index after 24 to 48 hrs by well diffusion method relative to amoxicillin; format: functional, organism-based

Substance | Activity index
Tributylstannyl 2-(4-methoxy-2-nitrophenylcarbamoyl)benzoate | 2.5

test system: Streptococcus pyogenes; experiment: Antibacterial activity against Streptococcus pyogenes assessed as zone of inhibition by measuring activity index after 24 to 48 hrs by well diffusion method relative to tetracycline; format: functional, organism-based

Substance | Activity_index
Tributylstannyl 2-(4-methoxy-2-nitrophenylcarbamoyl)benzoate | inactive

test system: Streptococcus pyogenes; experiment: Antibacterial activity against Streptococcus pyogenes assessed as zone of inhibition by measuring activity index after 24 to 48 hrs by well diffusion method relative to penicillin G; format: functional, organism-based

Substance | Activity_index
Tributylstannyl 2-(4-methoxy-2-nitrophenylcarbamoyl)benzoate | inactive

test system: Streptococcus pyogenes; experiment: Antibacterial activity against Streptococcus pyogenes assessed as zone of inhibition by measuring activity index after 24 to 48 hrs by well diffusion method relative to ampicillin; format: functional, organism-based

Substance | Activity_index
Tributylstannyl 2-(4-methoxy-2-nitrophenylcarbamoyl)benzoate | inactive

test system: Streptococcus pyogenes; experiment: Antibacterial activity against Streptococcus pyogenes assessed as zone of inhibition by measuring activity index after 24 to 48 hrs by well diffusion method relative to amoxicillin; format: functional, organism-based

Substance | Activity_index
Tributylstannyl 2-(4-methoxy-2-nitrophenylcarbamoyl)benzoate | inactive

test system: Staphylococcus epidermidis; experiment: Antibacterial activity against Staphylococcus epidermidis assessed as zone of inhibition by measuring activity index after 24 to 48 hrs by well diffusion method relative to tetracycline; format: functional, organism-based

Substance | Activity index
Tributylstannyl 2-(4-methoxy-2-nitrophenylcarbamoyl)benzoate | 1.6

test system: Staphylococcus epidermidis; experiment: Antibacterial activity against Staphylococcus epidermidis assessed as zone of inhibition by measuring activity index after 24 to 48 hrs by well diffusion method relative to amoxicillin; format: functional, organism-based

Substance | Activity index
Tributylstannyl 2-(4-methoxy-2-nitrophenylcarbamoyl)benzoate | 8

test system: Staphylococcus aureus; experiment: Antibacterial activity against Staphylococcus aureus assessed as zone of inhibition by measuring activity index after 24 to 48 hrs by well diffusion method relative to tetracycline; format: functional, organism-based

Substance | Activity_index
Tributylstannyl 2-(4-methoxy-2-nitrophenylcarbamoyl)benzoate | inactive

test system: Staphylococcus aureus; experiment: Antibacterial activity against Staphylococcus aureus assessed as zone of inhibition by measuring activity index after 24 to 48 hrs by well diffusion method relative to penicillin G; format: functional, organism-based

Substance | Activity_index
Tributylstannyl 2-(4-methoxy-2-nitrophenylcarbamoyl)benzoate | inactive

test system: Staphylococcus aureus; experiment: Antibacterial activity against Staphylococcus aureus assessed as zone of inhibition by measuring activity index after 24 to 48 hrs by well diffusion method relative to ampicillin; format: functional, organism-based

Substance | Activity_index
Tributylstannyl 2-(4-methoxy-2-nitrophenylcarbamoyl)benzoate | inactive

test system: Staphylococcus aureus; experiment: Antibacterial activity against Staphylococcus aureus assessed as zone of inhibition by measuring activity index after 24 to 48 hrs by well diffusion method relative to amoxicillin; format: functional, organism-based

Substance | Activity_index
Tributylstannyl 2-(4-methoxy-2-nitrophenylcarbamoyl)benzoate | inactive

test system: Serratia marcescens; experiment: Antibacterial activity against Serratia marcescens assessed as zone of inhibition by measuring activity index after 24 to 48 hrs by well diffusion method relative to penicillin G; format: functional

Substance | Activity index
Tributylstannyl 2-(4-methoxy-2-nitrophenylcarbamoyl)benzoate | 1.58

test system: Serratia marcescens; experiment: Antibacterial activity against Serratia marcescens assessed as zone of inhibition by measuring activity index after 24 to 48 hrs by well diffusion method relative to ampicillin; format: functional

Substance | Activity index
Tributylstannyl 2-(4-methoxy-2-nitrophenylcarbamoyl)benzoate | 1.58

test system: Serratia marcescens; experiment: Antibacterial activity against Serratia marcescens assessed as zone of inhibition by measuring activity index after 24 to 48 hrs by well diffusion method relative to amoxicillin; format: functional

Substance | Activity index
Tributylstannyl 2-(4-methoxy-2-nitrophenylcarbamoyl)benzoate | 2.11

test system: Pseudomonas aeruginosa; experiment: Antibacterial activity against Pseudomonas aeruginosa assessed as zone of inhibition by measuring activity index after 24 to 48 hrs by well diffusion method relative to tetracycline; format: functional, organism-based

Substance | Activity index
Tributylstannyl 2-(4-methoxy-2-nitrophenylcarbamoyl)benzoate | 2.61

test system: Pseudomonas aeruginosa; experiment: Antibacterial activity against Pseudomonas aeruginosa assessed as zone of inhibition by measuring activity index after 24 to 48 hrs by well diffusion method relative to penicillin G; format: functional, organism-based

Substance | Activity index
Tributylstannyl 2-(4-methoxy-2-nitrophenylcarbamoyl)benzoate | 2.61

test system: Pseudomonas aeruginosa; experiment: Antibacterial activity against Pseudomonas aeruginosa assessed as zone of inhibition by measuring activity index after 24 to 48 hrs by well diffusion method relative to amoxicillin; format: functional, organism-based

Substance | Activity index
Tributylstannyl 2-(4-methoxy-2-nitrophenylcarbamoyl)benzoate | 2.61

test system: Escherichia coli; experiment: Antibacterial activity against Escherichia coli assessed as zone of inhibition by measuring activity index after 24 to 48 hrs by well diffusion method relative to tetracycline; format: functional

Substance | Activity index
Tributylstannyl 2-(4-methoxy-2-nitrophenylcarbamoyl)benzoate | 0.78

test system: DNA; experiment: Binding affinity to single-stranded DNA (unknown origin) after 10 mins by UV-visible spectrometric method; format: nucleic-acid assay

Substance | K
Tributylstannyl 2-(4-methoxy-2-nitrophenylcarbamoyl)benzoate | 7.6 ×10³ /M

test system: NCI-H157; experiment: Cytotoxicity against human NCI-H157 cells after 48 hrs by sulforhodamine B assay; format: functional, cell-based

Substance | Activity
Tributylstannyl 2-(4-methoxy-2-nitrophenylcarbamoyl)benzoate | Dose-dependent effect

test system: DNA; experiment: Binding affinity to single-stranded DNA (unknown origin) assessed as red shift up to 72 uM after 10 mins by UV-visible spectrometric method; format: nucleic-acid assay

Substance | Activity
Tributylstannyl 2-(4-methoxy-2-nitrophenylcarbamoyl)benzoate | < 3 nm
